Experimental data: patent US20120184590A1, “FORMULATIONS OF INDOLE-3-CARBINOL DERIVED ANTITUMOR AGENTS WITH INCREASED ORAL BIOAVAILABILITY” (UNIVERSITY OF KANSAS, priority 2009, published 2012)

Assays:
[1] = Stability of SR13668 in Solutol (25° C. and 4° C.), HPLC/Fluorescence; format: physicochemical; settings: for stability: 25° C. and 4° C.; for SR13668 assay, stability of SR13668/Solutol aqueous solution: aqueous sample (theoretical 1.2000); for SR13668 assay, stability in Solutol: solid sample in Eppendorf tube
Experimental: A batch of 5 mg SR13668/g Solutol was made by stirring at 95° C. for 24 hrs. […] The sample was centrifuged while warm and no crystals were observed on the bottom of the tube. The sample was assayed from the top, middle and bottom of the centrifuge tube and there was no significant difference in the measurements. The SR13668 assay is an isocratic HPLC method with Fluorescence detection. The SR13668 concentration in Solutol was determined to be 5.00±0.09 mg/g (n=5).
Three types of samples from the above formulation (a. Solid Samples, b. Aqueous Solution and c. Solid stored and combined with water before assay) were stored at 25° C. (constant temperature bath) and 4° C. (refrigerator) and assayed weekly with the same HPLC/Fluorescence analytical method for 1-month.
Eppendorf tubes containing 1-mL samples of the above 5 mg SR13668/g Solutol solution were capped and stored under the two temperature conditions described above. At each time point the samples were melted and centrifuged at 95° C. No solids were ever observed in these samples.
In a 50-mL centrifuge tube, 12 g of the 5 mg SR13668/g Solutol melt was accurately weighed. The tube was tared and water, warmed to 70° C., was added to the 50 mL mark on the tube and weighed. The concentration of SR13668 in the aqueous solution was calculated based on the average SR13668/Solutol concentration of 5.00±0.09 mg/g, the weight of the Solutol and the total weight of solution in the tube. The tube was stored under the two temperature conditions described previously and the assayed amounts were compared with the theoretical. Observations were made on the tubes and there were no significant changes in the solutions and no solids were observed. The 25° C. tube did get a cloudy film layer, possibly biological growth. The layer dispersed after vigorous shaking. The 4° C. samples are cloudy, but clear up when warmed to room temperature. See results Table 8 and FIG. 5.
An accurately weighed 200 mg aliquot of the above 5 mg/g Solutol solution was stored at 25° C. and 4° C. At each time point, the solids were melted at 90° C. and 800 mg of accurately weighed 90° C. water was added. The samples were mixed and observations made. In all cases no solids were observed. A sample aliquot of the above aqueous solution was analyzed by HPLC/Fluorescence and the results compared with theoretical. See results Table 9 and FIG. 6. The analytical method is validated ±5% from theoretical. The majority of the samples fell within this limit.

[2] = Oral bioavailability of PEG400:Labrasol formulation in dogs (earlier finding); settings: dog, in vivo
[3] = stored as solid, prepared as aqueous solution, 4° C. storage, 0
[4] = stored as solid, prepared as aqueous solution, 4° C. storage, Day
[5] = stored as solid, prepared as aqueous solution, 4° C. storage, Day 7
[6] = stored as solid, prepared as aqueous solution, 4° C. storage, Day 14
[7] = stored as solid, prepared as aqueous solution, 4° C. storage, Day 21
[8] = stored as solid, prepared as aqueous solution, 4° C. storage, Day 28
[9] = stored as solid, prepared as aqueous solution, 25° C. storage, 0
[10] = stored as solid, prepared as aqueous solution, 25° C. storage, Day
[11] = stored as solid, prepared as aqueous solution, 25° C. storage, Day 7
[12] = stored as solid, prepared as aqueous solution, 25° C. storage, Day 14
[13] = stored as solid, prepared as aqueous solution, 25° C. storage, Day 21
[14] = stored as solid, prepared as aqueous solution, 25° C. storage, Day 28

SMILES: CCOC(=O)c1ccc2[nH]c3c(OC)c4[nH]c5ccc(C(=O)OCC)cc5c4cc3c2c1 [SR13668, 2,10-dicarbethoxy-6-methoxy-5,7-dihydro-indolo-(2,3-b)carbazole]
- stability ([1]; 5 mg SR13668/g Solutol, solid samples): stable within the error of the assay and no degradation was observed
- stability ([1]; SR13668/Solutol aqueous solution): stable within error and no drug degradation was observed
- SR13668 assay, stability of SR13668/Solutol aqueous solution ([1]; 4° C. storage, Day): 1.1384 mg SR13668/g Solutol
- SR13668 assay, stability of SR13668/Solutol aqueous solution ([1]; 4° C. storage, Day 7): 1.1758 mg SR13668/g Solutol
- SR13668 assay, stability of SR13668/Solutol aqueous solution ([1]; 4° C. storage, Day 14): 1.1981 mg SR13668/g Solutol
- SR13668 assay, stability of SR13668/Solutol aqueous solution ([1]; 4° C. storage, Day 21): 1.2509 mg SR13668/g Solutol
- SR13668 assay, stability of SR13668/Solutol aqueous solution ([1]; 4° C. storage, Day 28): 1.1985 mg SR13668/g Solutol
- SR13668 assay, stability of SR13668/Solutol aqueous solution ([1]; 4° C. storage, Day 35): 1.1814 mg SR13668/g Solutol
- SR13668 assay, stability of SR13668/Solutol aqueous solution ([1]; 25° C. storage, Day): 1.5040 mg SR13668/g Solutol
- SR13668 assay, stability of SR13668/Solutol aqueous solution ([1]; 25° C. storage, Day 7): 1.1311 mg SR13668/g Solutol
- SR13668 assay, stability of SR13668/Solutol aqueous solution ([1]; 25° C. storage, Day 14): 1.2256 mg SR13668/g Solutol
- SR13668 assay, stability of SR13668/Solutol aqueous solution ([1]; 25° C. storage, Day 21): 1.2663 mg SR13668/g Solutol
- SR13668 assay, stability of SR13668/Solutol aqueous solution ([1]; 25° C. storage, Day 28): 1.2116 mg SR13668/g Solutol
- SR13668 assay, stability of SR13668/Solutol aqueous solution ([1]; 25° C. storage, Day 35): 1.1942 mg SR13668/g Solutol
- SR13668 assay, stability in Solutol ([1]; 4° C. storage, 0 (t = 0 melt samples)): 5.00 mg SR13668/g Solutol
- SR13668 assay, stability in Solutol ([1]; 4° C. storage, Day): 5.05 mg SR13668/g Solutol
- SR13668 assay, stability in Solutol ([1]; 4° C. storage, Day 7): 4.97 mg SR13668/g Solutol
- SR13668 assay, stability in Solutol ([1]; 4° C. storage, Day 14): 5.33 mg SR13668/g Solutol
- SR13668 assay, stability in Solutol ([1]; 4° C. storage, Day 21): 5.06 mg SR13668/g Solutol
- SR13668 assay, stability in Solutol ([1]; 4° C. storage, Day 28): 4.97 mg SR13668/g Solutol
- SR13668 assay, stability in Solutol ([1]; 4° C. storage, Day 35): 4.87 mg SR13668/g Solutol
- SR13668 assay, stability in Solutol ([1]; 25° C. storage, 0 (t = 0 melt samples)): 5.00 mg SR13668/g Solutol
- SR13668 assay, stability in Solutol ([1]; 25° C. storage, Day): 4.93 mg SR13668/g Solutol
- SR13668 assay, stability in Solutol ([1]; 25° C. storage, Day 7): 5.10 mg SR13668/g Solutol
- SR13668 assay, stability in Solutol ([1]; 25° C. storage, Day 14): 5.19 mg SR13668/g Solutol
- SR13668 assay, stability in Solutol ([1]; 25° C. storage, Day 21): 5.14 mg SR13668/g Solutol
- SR13668 assay, stability in Solutol ([1]; 25° C. storage, Day 28): 5.00 mg SR13668/g Solutol
- SR13668 assay, stability in Solutol ([1]; 25° C. storage, Day 35): 4.93 mg SR13668/g Solutol
- stability ([1]; stored as solid, prepared as aqueous solution): no trends or indications that the samples are unstable
- % difference from Theory [1, 3]: −6.71%
- Measured mg SR13668/g Solutol [1, 3]: 0.9238 mg SR13668/g Solutol
- % difference from Theory [1, 4]: −7.00%
- Measured mg SR13668/g Solutol [1, 4]: 0.8804 mg SR13668/g Solutol
- % difference from Theory [1, 5]: 0.78%
- Measured mg SR13668/g Solutol [1, 5]: 0.9866 mg SR13668/g Solutol
- % difference from Theory [1, 6]: 2.91%
- Measured mg SR13668/g Solutol [1, 6]: 1.0608 mg SR13668/g Solutol
- % difference from Theory [1, 7]: −2.29%
- Measured mg SR13668/g Solutol [1, 7]: 0.9809 mg SR13668/g Solutol
- % difference from Theory [1, 8]: −4.87%
- Measured mg SR13668/g Solutol [1, 8]: 0.9160 mg SR13668/g Solutol
- % difference from Theory [1, 9]: −11.50%
- Measured mg SR13668/g Solutol [1, 9]: 0.8630 mg SR13668/g Solutol
- % difference from Theory [1, 10]: −6.56%
- Measured mg SR13668/g Solutol [1, 10]: 0.9955 mg SR13668/g Solutol
- % difference from Theory [1, 11]: 3.38%
- Measured mg SR13668/g Solutol [1, 11]: 1.0308 mg SR13668/g Solutol
- % difference from Theory [1, 12]: 3.40%
- Measured mg SR13668/g Solutol [1, 12]: 0.9609 mg SR13668/g Solutol
- % difference from Theory [1, 13]: −5.45%
- Measured mg SR13668/g Solutol [1, 13]: 0.9374 mg SR13668/g Solutol
- % difference from Theory [1, 14]: −4.84%
- Measured mg SR13668/g Solutol [1, 14]: 0.9372 mg SR13668/g Solutol
- bioavailability [2]: < 1%
